Measurements from publication PMC8472459, “In Vitro Phenotypic Activity and In Silico Analysis of Natural Products from Brazilian Biodiversity on Trypanosoma cruzi” (Molecules, 2021).
≈ marks a conversion by molar mass, not a printed value. Where “and” joins values, the source holds several entries; their conditions need not be identical. Equal entries are not always repeated. Where two headings read alike, the source gives them in different places.

What was measured:
[1] = Cardiotoxicity, primary cardiac cell cultures (PrestoBlue, light microscopy); type: cell-based; settings: Swiss Webster, mouse
Description: (§1) Primary cardiac cell cultures (CC) were obtained from Swiss Webster mice embryo hearts (18 gestation days) as described by Meirelles et al. and were used for toxicity assays. After purification, the cardiac cells were seeded (0.5 × 10^5 cells/well) in 96 wells microplates previously coated with 0.01% gelatin. The cardiac cultures were maintained in Dulbecco’s Modified Eagle’s Medium supplemented with 6% of FBS, 2.5 mM CaCl2, 1 mM L-glutamine, 1mM penicillin and 2% chicken embryo extract. Mice fibroblast of the line NTCL clone 929 (L929) were used for toxicity and anti-T. cruzi activity assays. L929 cells were seeded (4 × 10^3 cells/well) in 96 well microplates and kept in RPMI-1640 medium (Sigma-Aldrich, Missouri, EUA) supplemented with 10% FBS, 1% L-glutamine and 1% penicillin. The cell cultures were maintained at 37 °C at 5% CO2.
(§2) Cell viability was assessed using PrestoBlue (for assay with CC) and AlamarBlue (for assays with L929) with fluorescence and absorbance readouts (560–590 and 570–600 nm, respectively) in a spectrophotometer (Tunable microplates reader VersaMax; Molecular Devices). Additionally, cell morphology aspects were evaluated in a light microscope, as well as the contractability, density and cytoplasmic vacuolization. Cell viability rates were then determined by the LC50 values that correspond to the compound concentration able to reduce in 50% the viability of the cell population.

[2] = test system: bloodstream trypomastigotes of T. cruzi (Y strain); test: Activity against bloodstream trypomastigotes (Y strain), light microscopy count of live parasites; type: cell-based, Trypanosoma cruzi; settings: for SI (Selectivity Index), bloodstream trypomastigotes: LC50 cardiac cell cultures / EC50 bloodstream trypomastigotes
Description: In addition, the activity of both natural products was also evaluated against bloodstream trypomastigotes (BT), another relevant form of T. cruzi in mammalian hosts (Table 2). […] As cardiomyopathy is one of the main chronic symptoms of CD, next, the cardiotoxicity profile was assessed using primary cultures of mouse cardiac cells (CC) incubated with increasing concentration of both biomolecules and Bz. After […] of incubation with both extracts, no evident cardiac alterations related to cellular density and morphology was observed by light microscopy.
Bloodstream trypomastigotes (BT) of the T. cruzi Y strain (DTU II) were obtained by cardiac punction from Swiss Webster mice during the parasitemia peak and the purified parasites were resuspended in Dulbecco’s modified Eagle medium (DMEM) (Cultilab) supplemented with 10% fetal bovine serum (FBS).

[3] = test system: intracellular forms of T. cruzi (Tulahuen strain); test: Activity against intracellular forms of T. cruzi (Tulahuen-β gal strain) in infected L929 cell lines, CPRG readout; type: cell-based, Trypanosoma cruzi; settings: for SI (Selectivity Index), intracellular forms: LC50 L929 / EC50 intracellular forms; for inhibition at 10 µM / EC50: Trypanosoma cruzi
Description: The crude extracts and the resulting fractions were evaluated following a well standardized protocol of phenotypic analysis for novel drug candidates for CD [25]. The first approach was the screening against intracellular amastigotes (Tulahuen-β gal strain, DTU VI) using a fixed concentration of 10 µg/mL, which corresponds to the 90% effective concentration (EC90)value of the reference drug (Bz) for CD (Table 1). The leaves fraction using dichloromethane from Aureliana fasciculata var. fasciculata (AFfPD) sterilized T. cruzi infection in L929 cell lines, leading to 100% of infection reduction. […] Natural products from fruit pulp of C. cujete have no trypanocidal effect at a concentration of 10 µg/mL.
Culture derived trypomastigotes of Tulahuen strain (DTU VI), transfected with the β-galactosidase gene from Escherichia coli, were collected from the supernatant of previously infected L929 fibroblasts. Trypomastigotes were used to infect L929 cultures at a ratio of 10:1 (parasites/host cell) to determine activity against intracellular forms. After 2 h of interaction, the cultures were washed for the removal of remaining parasites and incubated for 48 h to ensure the establishment of the infection. On the first set of assays, the compounds were added in a fixed concentration (10 µg/mL or 10 µM for the extracts and purified fractions, respectively) that corresponds to EC90 of Bz. The non-infected cells (controls) were treated with DMSO and Bz and were also evaluated. The compounds that reached the same or higher activity than Bz were later evaluated in assays with increasing concentrations (serially diluted (7-fold): 0–50 µg/mL for extracts and fractions and 0–50 µM for purified compounds and Bz) for the determination of the EC50 and EC90 values (minimal concentration able to reduce to 50% and 90% of the infection index in cultures). In both assays the cultures were maintained at 37 °C for 96 h to enable the calculation of the inhibition percentage on the infection. Thereafter, 500 μM of substrate CPRG (chlorophenol red-β-D-galactopiranosideo) in 0.5% Nonidet P40 (Sigma-Aldrich, St. Louis, MO, United States) were added to the in vitro system. The plates were incubated for 18 h at 37 °C and, following, the absorbance was measured at 570 nm. […] All the assays were conducted in duplicate at least three times.

L929 cell lines = test: in vitro; type: cell-based
Description: as §1, §2

in vitro = type: cell-based
Description: as §1, §2

[4] = test system: promastigotes of L. amazonensis; design: method as in PMID 30513673; settings: cited from earlier work
[5] = test system: L. amazonensis infected macrophages; design: method as in PMID 30513673; settings: cited from earlier work; for EC50: read-out: EC50 upon infected macrophages
[6] = test system: cell-derived trypomastigotes; design: method as in PMID 28177047; settings: cited from earlier work
[7] = Trypanosoma cruzi, 2 h, read-out: EC50 bloodstream trypomastigotes, 2 h, Y strain
[8] = Trypanosoma cruzi, 24 h, read-out: EC50 bloodstream trypomastigotes, 24 h, Y strain
[9] = Trypanosoma cruzi, 24 h, read-out: EC90 bloodstream trypomastigotes
[10] = TULAHUEN, L929, 96 h, read-out: % of Infection Reduction, 10 μM, 96 h of incubation, L929 cell line infected with Tulahuen strain
[11] = TULAHUEN, L929, 96 h, read-out: EC50 intracellular forms
[12] = Trypanosoma cruzi, 2 h, Y strain, read-out: EC50 bloodstream trypomastigotes
[13] = Trypanosoma cruzi, 24 h, Y strain, read-out: EC50 bloodstream trypomastigotes
[14] = Trypanosoma cruzi, 24 h, Y strain, read-out: EC90 bloodstream trypomastigotes
[15] = TULAHUEN, L929, 96 h, 10 μM, 96 h of incubation, L929 cell line infected with Tulahuen strain, read-out: % of Infection Reduction
[16] = 96 h, Tulahuen strain, L929 host cells, read-out: EC50 intracellular forms

O=C(Cn1ccnc1[N+](=O)[O-])NCc1ccccc1 [Bz, Benznidazole, reference compound]
CC50 at 24 h [1]: > 750 µg/mL and > 750 µM | SI (Selectivity Index), bloodstream trypomastigotes ([2]; 24 h, µM data): >57.1 | SI (Selectivity Index), bloodstream trypomastigotes ([2]; 24 h, μg/mL data): >83 | EC50 ([2]; Trypanosoma cruzi, 2 h, read-out: EC50 bloodstream trypomastigotes (Y strain), 2 h): > 50 µg/mL | EC50 [2, 7]: > 50 µM | EC90 ([2]; Trypanosoma cruzi, 2 h, read-out: EC90 bloodstream trypomastigotes (Y strain)): > 50 µg/mL | EC50 ([2]; Trypanosoma cruzi, 24 h, read-out: EC50 bloodstream trypomastigotes (Y strain), 24 h): 10.2 ± 0.3 µg/mL | EC50 [2, 8]: 13.1 ± 3.9 µM | EC90 [2, 9]: 31.3 ± 8.8 µM | EC90 ([2]; Trypanosoma cruzi, 24 h, read-out: EC90 bloodstream trypomastigotes (Y strain)): 23.3 ± 0.6 µg/mL | SI (Selectivity Index), intracellular forms ([3]; 96 h, µM data): >66.6 | SI (Selectivity Index), intracellular forms ([3]; 96 h, μg/mL data): > 52 | inhibition at 10 µM [3, 10]: 92 ± 7% | EC50 [3, 11]: 3 ± 0.6 µM | EC50 ([3]; TULAHUEN, L929, 96 h, read-out: EC50 intracellular forms (Tulahuen strain)): 3.8 ± 1.8 µg/mL | % of Infection Reduction after 96 h of Incubation ([3]; fixed concentration of 10 µg/mL, L929 cell lines infected with Tulahuen strain, 96 h): 90.5 ± 5.7% | LC50 L929 cell lines (L929 cell lines): not toxic up to the higher tested concentration | CC50 at 96 h (in vitro; mouse): > 200 µg/mL and > 200 µM

CC(=O)O[C@@H]1CC2C3C[C@H]4O[C@]45[C@@H](O)C=CC(=O)[C@]5(C)C3CC[C@]2(C)[C@@]1(O)[C@H](C)C1CC(C)=C(C)C(=O)O1 (stereo partly shown) [Compound 1, Aurelianolide A]
CC50 at 24 h [1]: 16.4 ± 1.3 µM | SI (Selectivity Index), bloodstream trypomastigotes ([2]; 24 h, µM data): 2.9 | EC50 [2, 12]: > 50 µM | EC50 [2, 13]: 5.68 ± 2.3 µM | EC90 [2, 14]: 8.33 ± 3.9 µM | activity against promastigotes of L. amazonensis [4]: active | SI (Selectivity Index), intracellular forms ([3]; 96 h, µM data): 9.15 | inhibition at 10 µM [3, 15]: > 90% | EC50 [3, 16]: 4.6 ± 1.3 µM | selectivity indexes, infected macrophages [5]: 5.6 | EC50 [5]: 2.3 µM | CC50 at 96 h (in vitro; mouse): 42.1 ± 28.3 µM

CC(=O)O[C@@H]1CC2C3CC=C4[C@@H](O)C=CC(=O)[C@]4(C)C3CC[C@]2(C)[C@@]1(O)[C@H](C)C1CC(C)=C(C)C(=O)O1 (stereo partly shown) [Compound 2, Aurelianolide B]
CC50 at 24 h [1]: 30.9 ± 3.8 µM | SI (Selectivity Index), bloodstream trypomastigotes ([2]; 24 h, µM data): 5.4 | EC50 [2, 12]: > 50 µM | EC50 [2, 13]: 5.72 ± 1.3 µM | EC90 [2, 14]: 9.25 ± 3.2 µM | activity against promastigotes of L. amazonensis [4]: active | SI (Selectivity Index), intracellular forms ([3]; 96 h, µM data): 17.1 | inhibition at 10 µM [3, 15]: > 90% | EC50 [3, 16]: 1.6 ± 0.4 µM | selectivity indexes, infected macrophages [5]: 2.0 | EC50 [5]: 6.43 µM | CC50 at 96 h (in vitro; mouse): 27.4 ± 1 µM

C[C@H]1[C@@H](O)CCC2[C@]3(C)CC[C@@]4(C)C5CC(C)(C)CC[C@]5(C)CC[C@]4(C)C3CC[C@@]21C (stereo partly drawn) [Compound 3, 3 beta-friedelanol]
inhibition at 10 µM [3, 15]: 21 ± 10%

C[C@H]1C(=O)CC[C@@H]2[C@]1(C)CC[C@H]1[C@@]2(C)CC[C@@]2(C)[C@@H]3CC(C)(C)CC[C@]3(C)CC[C@]12C [Compound 6, Friedelin]
inhibition at 10 µM [3, 15]: 0%

COc1cc([C@H]2O[C@H](c3cc(OC)c(OC)c(OC)c3)[C@@H](C)[C@@H]2C)cc(OC)c1OC [Compound 7, (-)-grandisin]
inhibition at 10 µM [3, 15]: 25 ± 36%

COc1cc(/C=C/C(=O)N2CCC=CC2=O)cc(OC)c1OC [Compound 8, Piplartine]
CC50 at 24 h ([1]; 24 h, read-out: LC50 cardiac cell cultures): 33.1 ± 5.9 µM | SI (Selectivity Index), bloodstream trypomastigotes ([2]; 24 h, µM data): 6.2 | EC50 [2, 7]: > 50 µM | EC50 [2, 8]: 5.4 µM | EC90 [2, 9]: 14.4 ± 5.8 µM | EC50 ([2]; read-out: EC50 bloodstream trypomastigotes, 24 h, Y strain): 5.38 ± 0.3 µM | SI (Selectivity Index), intracellular forms ([3]; 96 h, µM data): 9 | inhibition at 10 µM [3, 10]: ~50% | EC50 [3, 11]: 8.1 ± 0.9 µM | CC50 at 96 h (in vitro; 96 h, read-out: LC50 L929 cell lines): 73.1 ± 75.5 µM

C=CC(C)(O)CCC=C(C)C (stereo not shown) [linalool]
selectivity index ([6]; cell-derived trypomastigotes): 2.9 | EC50 against cell-derived trypomastigotes [6]: 0.31 µg/mL (≈ 2.01 µM)

Oleanolic acid [Compound 4]
% of Infection Reduction ([3]; 10 μM, 96 h of incubation, L929 cell line infected with Tulahuen strain): 20 ± 18%
